Test results published in patent US12643871B2, “Aryl formamide compound containing chiral sulfur oxide or salt thereof, preparation method, herbicidal composition and use thereof” (Qingdao Kingagroot Chemical Compound Co., Ltd., priority 2019, dated 2026).

Tests used:
[1] = test system: key weeds such as Digitaria sanguinalis, Leptochloa chinensis; experiment: Comparison experiment (post-emergence, Tables 4-7), herbicidal activity on weeds not listed separately; assay type: in vivo; conditions: dose of 125, 60, 30, 15 g/ha
Method in brief: (§1)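 Readout: fresh weight control rate, counted 15 days post-spray and averaged over three replicates. Pot-grown plants (seeds under 0.5-2 cm soil) were treated at the 2 leaf stage, two weeks after sowing, with 15–500 g/ha compound plus methyl oleate synergist at 1.5 liter/ha.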

Monochoria vaginalis = experiment: Weed control effect evaluation in rice field; assay type: in vivo; conditions: 60 g/ha; rice field pot, 14 days after treatment; ALS-inhibitor resistant weed from Heilongjiang
From the text: (§2) The activity level criteria for harmful plant damage (i.e., growth control rate) are as follows: • Level 5: growth control rate is above 85%; • Level 4: growth control rate is greater than or equal to 60% and less than 85%; • Level 3: growth control rate is greater than or equal to 40% and less than 60%; • Level 2: growth control rate is greater than or equal to 20% and less than 40%; • Level 1: growth control rate is greater than or equal to 5% and less than 20%; • Level 0: growth control rate is less than 5%.
(§3) Rice field soil was loaded into a 1/1,000,000 ha pot. The seeds of Echinochloa crusgali, Scirpus juncoides, Bidens tripartita, Sagittaria trifolia, Monochoria vaginalis and Leptochloa chinensis were sowed and gently covered with soil, then left to stand still in greenhouse in the state of 0.5-1 cm of water storage. The tuber of Sagittaria trifolia was planted in the next day or 2 days later. It was kept at 3-4 cm of water storage thereafter. The weeds were treated by dripping the WP or SC water diluents prepared according to the common preparation method of the compounds of the present invention with pipette homogeneously to achieve specified effective amount when Echinochloa crusgali, Scirpus juncoides, Bidens tripartita, Monochoria vaginalis and Leptochloa chinensis reached 0.5 leaf stage and Sagittaria trifolia reached the time point of primary leaf stage.
(§4) The fertility condition of Echinochloa crusgali, Scirpus juncoides, Bidens tripartita, Leptochloa chinensis, Sagittaria trifolia and Monochoria vaginalis 14 days after the treatment of the compound of the invention and the fertility condition of rice 21 days after the treatment of the compound of the invention respectively with the naked eye. Evaluate the weed control effect with 0-5 activity standard level. Many compounds show excellent activity and selectivity.

Echinochloa crusgali [2] = experiment: Weed control effect evaluation in rice field; assay type: in vivo; conditions: 60 g/ha; rice field pot, 14 days after treatment; ALS-inhibitor resistant weed from Heilongjiang
From the text: as §2, §3, §4

Sagittaria trifolia = experiment: Weed control effect evaluation in rice field; assay type: in vivo; conditions: 60 g/ha; rice field pot, 14 days after treatment; ALS-inhibitor resistant weed from Heilongjiang
From the text: as §2, §3, §4

Leptochloa chinensis = experiment: Weed control effect evaluation in rice field; assay type: in vivo; conditions: 60 g/ha; rice field pot, 14 days after treatment
From the text: as §2, §3, §4

Rice = experiment: Transplanted rice safety evaluation; assay type: in vivo, rice (japonica rice/Indica rice); conditions: 60 g/ha; transplanted 3 leaf stage rice, 21 days after treatment
From the text: as §2
In addition, the rice field soil that loaded into the 1/1,000,000 ha pot was leveled to keep water storage at 3-4 cm depth. The 3 leaf stage rice (japonica rice/Indica rice) was transplanted at 3 cm of transplanting depth the next day. The compound of the present invention was treated by the same way after 5 days of transplantation.
as §4

rice and other crops = experiment: Comparison experiment (post-emergence, Tables 4-7), crop safety; assay type: in vivo; conditions: dose of 125, 60, 30, 15 g/ha
Method in brief: as §1

Setaria viridis = experiment: Weeding effect in post-emergence stage; assay type: in vivo; conditions: 250 g/ha; 2 leaf stage; 15 days after application; fresh weight control rate
Method in brief: (§5)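 Activity graded 0 (<5%) to 5 (>85%) from fresh-weight control rate, averaged over three repeats, 15 days after a spray-tower application. Plants at 2-leaf stage (2 weeks post-sowing) received 15–500 g/ha of compound formulated in acetone, Tween 80 and methyl oleate synergist (1.5 L/ha).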

Abutilon theophrasti = experiment: Weeding effect in post-emergence stage; assay type: in vivo; conditions: 250 g/ha; 2 leaf stage; 15 days after application; fresh weight control rate
Method in brief: as §5

Amaranthus retroflexus = experiment: Weeding effect in post-emergence stage; assay type: in vivo; conditions: 250 g/ha; 2 leaf stage; 15 days after application; fresh weight control rate
Method in brief: as §5

Echinochloa crusgali [3] = experiment: Weeding effect in post-emergence stage; assay type: in vivo; conditions: 250 g/ha; 2 leaf stage; 15 days after application; fresh weight control rate
Method in brief: as §5

Digitaria sanguinalis = experiment: Weeding effect in post-emergence stage; assay type: in vivo; conditions: 250 g/ha; 2 leaf stage; 15 days after application; fresh weight control rate
Method in brief: as §5

Structure (SMILES)	activity to key weeds such as Digitaria sanguinalis, Leptochloa chinensis compared with the corresponding racemate or S configuration [1]	Herbicidal effects of compounds, Monochoria vaginalis, 0-5 activity standard level (Monochoria vaginalis)	Herbicidal effects of compounds, Echinochloa crusgali, 0-5 activity standard level (Echinochloa crusgali [2])	Herbicidal effects of compounds, Sagittaria trifolia, 0-5 activity standard level (Sagittaria trifolia)	Herbicidal effects of compounds, Leptochloa chinensis, 0-5 activity standard level (Leptochloa chinensis)	Herbicidal effects of compounds, Rice, 0-5 activity standard level (Rice)	safety to rice and other crops compared with the corresponding racemate or S configuration (rice and other crops)	weeding effect in post-emergence stage, activity level (growth control rate), Setaria viridis (Setaria viridis)	weeding effect in post-emergence stage, activity level (growth control rate), Abutilon theophrasti (Abutilon theophrasti)	weeding effect in post-emergence stage, activity level (growth control rate), Amaranthus retroflexus (Amaranthus retroflexus)	weeding effect in post-emergence stage, activity level (growth control rate), Echinochloa crusgali (Echinochloa crusgali [3])	weeding effect in post-emergence stage, activity level (growth control rate), Digitaria sanguinalis (Digitaria sanguinalis)
CCCC[S@@+]([O-])c1c(C(F)(F)F)ccc(C(=O)Nc2nnc(C)o2)c1F [Compound 4]	better activity	5 (Level 5: growth control rate is above 85%)	5 (Level 5: growth control rate is above 85%)	5 (Level 5: growth control rate is above 85%)	5 (Level 5: growth control rate is above 85%)	0 (Level 0: growth control rate is less than 5%)	higher safety	5 (Level 5: growth control rate is above 85%)	5 (Level 5: growth control rate is above 85%)	5 (Level 5: growth control rate is above 85%)	5 (Level 5: growth control rate is above 85%)	5 (Level 5: growth control rate is above 85%)
Cc1nnc(NC(=O)c2ccc(C(F)(F)F)c([S@+]([O-])CC(C)C)c2F)o1 [Compound 6]		5 (Level 5: growth control rate is above 85%)	5 (Level 5: growth control rate is above 85%)	5 (Level 5: growth control rate is above 85%)	5 (Level 5: growth control rate is above 85%)	0 (Level 0: growth control rate is less than 5%)		5 (Level 5: growth control rate is above 85%)	5 (Level 5: growth control rate is above 85%)	5 (Level 5: growth control rate is above 85%)	5 (Level 5: growth control rate is above 85%)	5 (Level 5: growth control rate is above 85%)
Cc1nnc(NC(=O)c2ccc(C(F)(F)F)c([S@+]([O-])CCCF)c2F)o1 [Compound 26]	better activity	5 (Level 5: growth control rate is above 85%)	5 (Level 5: growth control rate is above 85%)	5 (Level 5: growth control rate is above 85%)	5 (Level 5: growth control rate is above 85%)	0 (Level 0: growth control rate is less than 5%)	higher safety	5 (Level 5: growth control rate is above 85%)	5 (Level 5: growth control rate is above 85%)	5 (Level 5: growth control rate is above 85%)	5 (Level 5: growth control rate is above 85%)	5 (Level 5: growth control rate is above 85%)
Cc1nnc(NC(=O)c2ccc(C(F)(F)F)c([S@+]([O-])CCCCl)c2F)o1 [Compound 37]		5 (Level 5: growth control rate is above 85%)	5 (Level 5: growth control rate is above 85%)	5 (Level 5: growth control rate is above 85%)	5 (Level 5: growth control rate is above 85%)	0 (Level 0: growth control rate is less than 5%)		5 (Level 5: growth control rate is above 85%)	5 (Level 5: growth control rate is above 85%)	5 (Level 5: growth control rate is above 85%)	5 (Level 5: growth control rate is above 85%)	5 (Level 5: growth control rate is above 85%)
Cc1nnc(NC(=O)c2ccc(C(F)(F)F)c([S@+]([O-])C3COC3)c2F)o1 [Compound 79]		5 (Level 5: growth control rate is above 85%)	5 (Level 5: growth control rate is above 85%)	5 (Level 5: growth control rate is above 85%)	5 (Level 5: growth control rate is above 85%)	0 (Level 0: growth control rate is less than 5%)		5 (Level 5: growth control rate is above 85%)	5 (Level 5: growth control rate is above 85%)	5 (Level 5: growth control rate is above 85%)	5 (Level 5: growth control rate is above 85%)	5 (Level 5: growth control rate is above 85%)
